Values quoted from earlier work as cited in US8293290B2, “Annatto extract compositions, including geranyl geraniols and methods of use” (American River Nutrition, Inc., priority 2003, dated 2012).

Experiments:
[1] = test system: untransformed cells or normal cells
PPARγ = molecular target: T1, PPARγ (Mus musculus, UniProt P37238); settings: at the adipocytes
T1 construct: host or cells: 3T3-L1 adipocytes (from the cited title only)
T1 sequence (P37238 1-505): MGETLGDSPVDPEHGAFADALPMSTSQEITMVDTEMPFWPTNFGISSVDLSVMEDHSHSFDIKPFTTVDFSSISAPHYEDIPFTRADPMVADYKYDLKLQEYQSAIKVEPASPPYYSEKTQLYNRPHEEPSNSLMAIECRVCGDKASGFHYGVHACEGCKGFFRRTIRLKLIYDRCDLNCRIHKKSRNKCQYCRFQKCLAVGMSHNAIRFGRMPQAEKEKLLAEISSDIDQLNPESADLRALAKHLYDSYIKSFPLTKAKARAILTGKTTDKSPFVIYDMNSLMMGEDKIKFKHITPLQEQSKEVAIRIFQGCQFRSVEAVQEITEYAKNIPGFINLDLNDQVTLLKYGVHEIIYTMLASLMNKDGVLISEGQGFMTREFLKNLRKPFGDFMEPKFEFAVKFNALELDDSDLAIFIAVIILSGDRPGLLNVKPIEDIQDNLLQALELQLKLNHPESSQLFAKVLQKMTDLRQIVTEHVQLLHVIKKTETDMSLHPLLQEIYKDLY

PPARα = molecular target: T2, PPARα (Homo sapiens, UniProt Q07869); settings: at the hepatocytes
T2 construct: host or cells: HepG2 hepatocytes (from the cited title only)
T2 sequence (Q07869 1-468): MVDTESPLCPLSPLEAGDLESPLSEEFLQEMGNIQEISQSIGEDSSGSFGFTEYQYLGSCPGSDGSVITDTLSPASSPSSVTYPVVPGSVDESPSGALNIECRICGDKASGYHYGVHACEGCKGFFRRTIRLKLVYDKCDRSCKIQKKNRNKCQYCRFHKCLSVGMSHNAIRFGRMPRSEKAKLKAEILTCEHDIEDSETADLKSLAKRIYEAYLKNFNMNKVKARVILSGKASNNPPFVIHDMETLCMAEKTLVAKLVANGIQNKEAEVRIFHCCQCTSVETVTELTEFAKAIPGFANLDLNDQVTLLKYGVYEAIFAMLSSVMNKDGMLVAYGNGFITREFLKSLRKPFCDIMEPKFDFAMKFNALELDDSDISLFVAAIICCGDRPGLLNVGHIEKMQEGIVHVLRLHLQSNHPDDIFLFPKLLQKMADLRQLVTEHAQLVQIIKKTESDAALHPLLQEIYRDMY

prostate cancer patients = settings: after one year of CoQ10 supplementation
[2] = exogenous oral supplementation

| Structure (SMILES) | cytotoxicity (cell rounding, indicator of myotoxicity) [1] | toxicity to untransformed cells or normal cells [1] | inhibition of cytochrome P450 enzymes (incl. CYP3A4) (cytochrome P450 enzymes) | PPARγ activation (PPARγ) | PPARα activation (PPARα) | decrease of prostate mass (prostate cancer patients) | decrease of prostate specific antigen (PSA) (prostate cancer patients) | fraction of supplemental CoQ10 absorbed [2] |
| --- | --- | --- | --- | --- | --- | --- | --- | --- |
| CC(C)=CCC/C(C)=C/CC/C(C)=C/CC/C(C)=C/CO [GG, Geranyl geraniol] | not cytotoxic | not toxic | does not inhibit | activates | activates | – | – | – |
| COC1=C(OC)C(=O)C(C/C=C(\C)CC/C=C(\C)CC/C=C(\C)CC/C=C(\C)CC/C=C(\C)CC/C=C(\C)CC/C=C(\C)CC/C=C(\C)CC/C=C(\C)CCC=C(C)C)=C(C)C1=O [CoQ10, coenzyme Q10] | – | – | – | – | – | 47% | 71% | less than 5% |
